We go through one compound from paper PMC3506555, “[^11C]phenytoin revisited: synthesis by [^11C]CO carbonylation and first evaluation as a P-gp tracer in rats” (EJNMMI Research, 2012).

Several values for one entry are separate records, joined by “and”; a condition that tells them apart may be missing. Equal values may be shown once.

Holding throughout (format): in vivo, Sprague–Dawley rats
Data set [1] in a line: Arterial plasma radioactivity concentration during PET scans. How it is done:
For animals that underwent three scans, the amount of blood withdrawn was reduced by replacing the two samples at 15 and 30 min with a single 20-min sample. […] Standardized uptake values (SUVs) as a function of time were derived by normalizing measured radioactivity concentrations against injected dose and body weight.

Data set [2] can be described thus: Metabolite analysis in brain tissue after i.v. [11C]phenytoin. Particulars: rat brain, N = 2. The protocol: Chemicals were obtained from Sigma Aldrich (St. Louis, MO, USA) and were used without further purification. All reactions were carried out under an argon atmosphere unless stated otherwise. [^11C]CO2 was produced using an IBA Cyclone 18/9 cyclotron (IBA, Louvain-La-Neuve, Belgium) by the ^14N(p,α)^11C nuclear reaction performed in a 0.5% O2/N2 gas mixture. Water was purified over a Millipore filter (Millipore, Leiden, The Netherlands). The silica gel used as stationary phase for flash column chromatography was grade 9385, 230 to 400 mesh, 60 Å and obtained from Sigma Aldrich. Chemical shifts (δ) of nuclear magnetic resonance (NMR) spectra were defined relative to the signal of the solvent (7.26 for CDCl3 and 2.50 for DMSO-d6) and measured on a Bruker Avance 250 (Bruker, Billerica, MA, USA), with δ reported in parts per million relative to the solvent. Infrared (IR) spectra were obtained using a Shimadzu FTIR-8400 S (Shimadzu, Kyoto, Japan), and wavelengths (ν) are reported in per centimeter and (s), (m) and (w), indicating strong, moderate and weak signal, respectively. […]
To study the metabolic profile of [^11C]phenytoin in the plasma and brain, five male Sprague–Dawley rats were injected with 150 to 250 MBq [^11C]phenytoin in the tail vein under isoflurane anesthesia. […] This eluate was defined as the nonpolar fraction and was analyzed using HPLC method C. […]

The nature of data set [3]: Metabolite analysis in plasma after i.v. [11C]phenytoin. Particulars: for Percentage of intact [11C]phenytoin, plasma: rat plasma, N = 2. The protocol:
Chemicals were obtained from Sigma Aldrich (St. Louis, MO, USA) and were used without further purification. All reactions were carried out under an argon atmosphere unless stated otherwise. [^11C]CO2 was produced using an IBA Cyclone 18/9 cyclotron (IBA, Louvain-La-Neuve, Belgium) by the ^14N(p,α)^11C nuclear reaction performed in a 0.5% O2/N2 gas mixture. Water was purified over a Millipore filter (Millipore, Leiden, The Netherlands). The silica gel used as stationary phase for flash column chromatography was grade 9385, 230 to 400 mesh, 60 Å and obtained from Sigma Aldrich. Chemical shifts (δ) of nuclear magnetic resonance (NMR) spectra were defined relative to the signal of the solvent (7.26 for CDCl3 and 2.50 for DMSO-d6) and measured on a Bruker Avance 250 (Bruker, Billerica, MA, USA), with δ reported in parts per million relative to the solvent. Infrared (IR) spectra were obtained using a Shimadzu FTIR-8400 S (Shimadzu, Kyoto, Japan), and wavelengths (ν) are reported in per centimeter and (s), (m) and (w), indicating strong, moderate and weak signal, respectively. Electrospray ionization high-resolution mass spectrometry (ESI-HRMS) was carried out using a Bruker microTOF-Q instrument in positive ion mode (capillary potential of 4.500 V); electrospray ionization mass spectrometry was carried out using an AB Sciex Qtrap 5500 LC-MS/MS instrument (AB Sciex, Foster City, CA, USA) in negative ion mode. Semi-preparative high performance liquid chromatography (HPLC) was performed on an ACE 5-μM C18, 250*10-mm column (Alltech, Nicholasville, KY, USA) using the following settings: wavelength 230 nm, eluent MeCN/H2O/TFA 60/40/0.15 (v/v/v) and flow 4 mL·min^−1 (method A). Analytical HPLC was performed on a Kromasil 100 C18 10-μM (4.6 to 250 mm) column (Grace Alltech, Breda, The Netherlands) with the following settings: wavelength 230 nm, eluent acetonitrile/water/[…] 75/25/0.2 (v/v/v) and flow 1 mL·min^−1 (method B). Metabolite analysis was performed on a Gemini C18 5-μm (10 to 250 mm) column (Phenomenex, Torrance, CA, USA) (method C) with gradient and a mixture of (A) acetonitrile and (B) 0.1% trifluoro acetic acid in H2O as eluent according to the following scheme: 0 min, 90% B at 0.25 mL·min^−1; 0.5 min, 20% B at 4 mL·min^−1; 9.0 min, 30% B at 4 mL·min^−1; 13 min, 30% B at 4 mL·min^−1; 14.0 min, 90% B at 4.0 mL·min^−1 and 15 min, 90% B at 0.25 mL·min^−1. Tetrahydrofuran (THF), which was used during experiments, was distilled over LiAlH4 just prior to the experiments unless stated otherwise.
To study the metabolic profile of [^11C]phenytoin in the plasma and brain, five male Sprague–Dawley rats were injected with 150 to 250 MBq [^11C]phenytoin in the tail vein under isoflurane anesthesia. Three of these animals were pretreated with 15 mg·kg^−1 tariquidar 20 min prior to [^11C]phenytoin administration. Three arterial blood samples of 0.5, 0.8 and 1.2 mL were withdrawn at 10, 30 and 45 min or at 5, 15 and 25 min after [^11C]phenytoin injection, respectively. Immediately following the last blood sample, the rats were euthanized, and the brain was isolated. All blood samples were collected in heparin tubes and centrifuged at 4.000 rpm for 5 min at 4°C (Hettich Universal 16, Depex B.V., The Netherlands). Plasma was separated from blood cells and, between 0.3 and 0.7 mL, was loaded onto a tC-18 Sep-Pak (Waters, The Netherlands) and washed with 20 mL of water. The eluate was defined as the polar radiolabeled metabolite fraction. Thereafter, the tC-18 Sep-Pak was eluted with 1.5 ml of methanol. This eluate was defined as the nonpolar fraction and was analyzed using HPLC method C. Brain tissue was homogenized with an ultrasonic homogenizer (Braunsonic 1510, Kronberg, Germany) in water, under ice cooling, and subsequently centrifuged at 4,000 rpm for 5 min at 4°C. Separated supernatants were loaded onto a tC-18 Sep-Pak and washed with 20 mL water to obtain the polar fraction.

Consider `O=C1N[11C](=O)NC1(c1ccccc1)c1ccccc1` [[^11C]phenytoin], for which the “Initial plasma concentrations after tariquidar treatment versus baseline” value in data set [1] (initial part of scan) was “somewhat lower than at baseline”. Also, in data set [1] (towards the end of the scans), the “Plasma concentrations after tariquidar treatment versus baseline” value is on record as “similar”. Also, the “Percentage of intact [11C]phenytoin, brain” value in data set [2] (25 min after injection) was 95 ± 1%; in data set [2] (45 min after injection) it was 83% and 83 ± 5%. Also, the “Percentage of intact [11C]phenytoin, plasma” value in data set [3] (5 min after injection) is 60 ± 7%; in data set [3] (10 min after injection) it was 50 ± 16%; in data set [3] (15 min after injection), 38 ± 3%; in data set [3] (25 min after injection) it was 28 ± 2%; in data set [3] (30 min after injection), 32 ± 18%; in data set [3] (45 min after injection), 19% and 19 ± 8%. Moreover, the “Metabolism in tariquidar-treated versus untreated rats” value in data set [3] (tariquidar 15 mg·kg^−1, 20 min prior to tracer) is given as “no difference in metabolism”.
